Tests used:
human keratinocytes = test: Inhibition of IL-8 secretion by human keratinocytes stimulated by IL-17 and TNF-α; format: cell-based; details: keratinocytes stimulated by IL-17 and TNF-α
human lymphocytes = test: Inhibition of IL-2 secretion by human lymphocytes stimulated by CD2, CD3 and CD28; format: cell-based; details: lymphocytes stimulated by CD2, CD3 and CD28
Caco-2/TC7 cells = test: Cytotoxicity test, LDH secretion, Caco-2/TC7; format: cell-based; details: for cytotoxicity (LDH), Caco-2/TC7: stimulated, low concentrations; for LDH secretion at the higher concentrations: ≥50 μM
Experimental: 1.2.6. […] To measure the concentration of LDH in the cell lysate, 800 μL of NADH was added to 10 μL of […] and 190 μL of 0.1 M PBS in a plastic cuvette, and the decrease in the absorbance at 340 nm was monitored for 1 min. […] The percentage of cytotoxicity could be established with the formula: […]
The cytotoxicity of the tested and control compounds was evaluated using a measurement test of the LDH (Lactate Dehydrogenase) secretion. This test is based on the measurement of the amount of LDH secreted by the cells in their supernatant, compared to the amount of LDH that will remain in the intracellular compartment. This ratio provides an indication of the membrane damage suffered by the cells, and thus of the cytotoxicity of the compound.
Two methods were used to perform this test: the measurement using an extemporaneously prepared pyruvate/NADH solution, or using the Cytotoxicity Detection Kit^PLUS(LDH) from the manufacturer Roche (Sigma-Aldrich).
Pyruvate/NADH method: pyruvate/NADH solution prepared with 4.1 mg pyruvic acid (0.62 mM) and 7.7 mg NADH (0.18 mM) in 60 ml of 0.1M PBS (pH 7.4).
For the measurement of the LDH concentration in the supernatants, 800 μL of NADH was added to 200 μL of supernatant in plastic spectrometry cuvettes, and the decrease in absorbance of the final solution was read at 340 nm for 1 min. For the measurement of the LDH concentration in the cell lysates, 800 μL of NADH was added to 10 μL of cell lysates and 190 μL of 0.1M PBS in plastic spectrometry cuvettes, and the decrease in absorbance of the final solution was read at 340 nm for 1 min. The percentage of LDH secreted was then calculated by the ratio of the decay slopes of the absorbance of the supernatants and of the cell lysates (respectively).
Cytotoxicity Detection Kit^PLUS (LDH) method: absorbance test performed according to the manufacturer's instructions. The percentage of LDH secreted was then calculated by the formula: […]

E. coli K12 strain = test: Bactericidal dosage on the E. coli K12 strain (absorbance at 600 nm); format: cell-based; details: all concentrations, maximum 100 μM shown; 18 h
Experimental: 1.1.4. Bactericidal Dosage • The K12 strain of E. coli was grown on agar on day 0 and a colony was transferred to the LYBHI liquid bacterial culture medium on day 1. On day 2, the colony was diluted 1:100 in LYBHI medium and amplified for 18 hours before transfer to an opaque 96-well plate. In each well, LYBHI, controls or increasing doses of tested molecules and bacteria were distributed. The absorbance at 600 nm was read at start-up (t=0) and after an 18-hour incubation. The raw absorbance values were corrected using the absorbance of solutions without bacteria. All experiments were performed twice, each with 4 replicates.
The E. coli K12 strain was cultured at D0 on agar gel, and then a selected colony was transferred to a liquid bacterial culture LYBHI medium at D1. At day 2, this colony was diluted 1:100 in LYBHI medium, and maintained for 18 hours for expansion before distribution in an opaque 96-well plate. In each well were distributed: LYBHI medium, bacterial culture, and test or control compounds. The absorbance of the wells was read at 600 nm at t0 and t18h. The raw absorbance values were corrected against the absorbance of the wells containing only LYBHI medium without bacteria or compounds.

[1] = Resistance to hydrolysis giving the open form; format: physicochemical

Row | Compound | EC50 (human keratinocytes; Homo sapiens, Keratinocyte, read-out: relative EC50, inhibition of IL-8 secretion) [nM] | maximum inhibition as % of the inhibition obtained with the reference compound betamethasone (human keratinocytes; IL-8 secretion) [%] | EC50 (human lymphocytes; Homo sapiens, Lymphocyte, read-out: relative EC50, inhibition of IL-2 secretion) [nM] | maximum inhibition as % of the inhibition obtained with the reference compound betamethasone (human lymphocytes; IL-2 secretion) [%] | cytotoxicity (LDH), Caco-2/TC7 (Caco-2/TC7 cells) | LDH secretion at the higher concentrations (Caco-2/TC7 cells) | comparative survival of E. coli K12 (E. coli K12 strain) | resistance to hydrolysis (enzymatic and spontaneous) [1] | LDH secretion (Caco-2/TC7 cells; Caco-2/TC7, at 100 μM) [%] | toxicity (LDH), Caco-2/TC7 (Caco-2/TC7 cells; any of the concentrations tested)
1 | CCCCCCCCCC(=O)CC(=O)N[C@H]1CCCC[C@@H]1O [I-2, N-[(1S,2S)-2-hydroxycyclohexyl]-3-oxo-dodecanamide] | 111 | 39 | 89.9 | 46 | not cytotoxic at low concentrations | not as significant | No significant differences | resistant to the hydrolysis giving an open form (both enzymatic and spontaneous) |  | 
2 | CCCCCCCCCC(=O)CC(=O)N[C@H]1CCCC[C@H]1O [I-4, N-[(1S,2R)-2-hydroxycyclohexyl]-3-oxo-dodecanamide] |  |  |  |  | not cytotoxic at low concentrations | an increase in LDH secretion | No significant differences |  | 9 | 
3 | CCCCCCCCCC(=O)CC(=O)Nc1cc(Cl)ccc1O [I-6, N-(5-chloro-2-hydroxyphenyl)-3-oxododecanamide] |  |  |  |  |  |  | No significant differences |  |  | not toxic
